# In ChEMBL document CHEMBL2390843, “Design, synthesis and antitumour activity of bisquinoline derivatives connected by 4-oxy-3-fluoroaniline moiety” (Eur J Med Chem, 2013):
# How the values were obtained:
# MKN-45 = test: Cytotoxicity against human MKN45 cells after 72 hrs by MTT assay; conditions: MKN-45, 72 h
# [1] = Cytotoxicity against human H460 cells after 72 hrs by MTT assay; conditions: NCI-H460, 72 h
# SMMC-7721 = test: Cytotoxicity against human SMMC7721 cells after 72 hrs by MTT assay; conditions: SMMC-7721, 72 h
# HT-29 = test: Cytotoxicity against human HT-29 cells after 72 hrs by MTT assay; conditions: HT-29, 72 h
# [2] = Cytotoxicity against human U87MG cells after 72 hrs by MTT assay; format: functional, cell-based, U-87MG ATCC; conditions: U-87 MG
Compound,IC50 (MKN-45) [nM],IC50 [1] [nM],IC50 (SMMC-7721) [nM],IC50 (HT-29) [nM],IC50 [2] [nM]
COc1cc2c(Oc3ccc(NC(=O)c4cc(-c5ccc(C)cc5)nc5ccccc45)cc3F)ccnc2cc1OCCCN1CCC(C)CC1,770,880,1260,3150,
COc1cccc(-c2cc(C(=O)Nc3ccc(Oc4ccnc5cc(OCCCN6CCCCC6)c(OC)cc45)c(F)c3)c3cc(F)ccc3n2)c1,690,1000,,2500,1610
COc1cc2c(Oc3ccc(NC(=O)c4cc(-c5ccccc5)nc5ccc(F)cc45)cc3F)ccnc2cc1OCCCN1CCCC1,110,90,,160,960
COc1cc2c(Oc3ccc(NC(=O)c4cc(-c5ccc(Cl)c(Cl)c5)nc5ccccc45)cc3F)ccnc2cc1OCCCN1CCCCC1,730,820,770,1210,
COc1cc2c(Oc3ccc(NC(=O)c4cc(-c5cccc(Cl)c5)nc5ccc(F)cc45)cc3F)ccnc2cc1OCCCN1CCCC1,67,72,,670,990
COc1cccc(-c2cc(C(=O)Nc3ccc(Oc4ccnc5cc(OCCCN6CCCCC6)c(OC)cc45)c(F)c3)c3ccccc3n2)c1,360,210,380,1740,
COc1cc2c(Oc3ccc(NC(=O)c4cc(-c5ccc(Cl)cc5Cl)nc5ccc(F)cc45)cc3F)ccnc2cc1OCCCN1CCCCC1,250,310,,530,1040
COc1cc2c(Oc3ccc(NC(=O)c4cc(-c5ccccc5)nc5ccccc45)cc3F)ccnc2cc1OCCCN1CCCCC1,15,110,290,530,1490
COc1cc2c(Oc3ccc(NC(=O)c4cc(-c5ccccc5)nc5ccccc45)cc3F)ccnc2cc1OCCCN1CCOCC1,91,190,330,1520,1140
COc1cc2c(Oc3ccc(NC(=O)c4cc(-c5ccccc5)nc5ccc(F)cc45)cc3F)ccnc2cc1OCCCN1CCCCC1,30,32,,120,690
COc1cc2c(Oc3ccc(NC(=O)c4cc(-c5ccccc5)nc5ccccc45)cc3F)ccnc2cc1OCCCN1CCC(C)CC1,19,68,160,120,920
COc1cc2c(Oc3ccc(NC(=O)c4cc(-c5cccc(Cl)c5)nc5ccccc45)cc3F)ccnc2cc1OCCCN1CCOCC1,35,80,320,1080,1470
COc1cc2c(Oc3ccc(NC(=O)c4cc(-c5ccc(C)cc5)nc5ccc(F)cc45)cc3F)ccnc2cc1OCCCN1CCCCC1,170,260,,500,1050
COc1cc2c(Oc3ccc(NC(=O)c4cc(-c5ccc(F)cc5)nc5ccccc45)cc3F)ccnc2cc1OCCCN1CCCCC1,28,21,74,130,980
COc1cc2c(Oc3ccc(NC(=O)c4cc(-c5ccc(C)cc5)nc5ccc(F)cc45)cc3F)ccnc2cc1OCCCN1CCC(C)CC1,260,480,,420,2000
COc1ccc(-c2cc(C(=O)Nc3ccc(Oc4ccnc5cc(OCCCN6CCCC6)c(OC)cc45)c(F)c3)c3cc(F)ccc3n2)cc1,170,250,,610,930
COc1cc2c(Oc3ccc(NC(=O)c4cc(-c5cccc(Cl)c5)nc5ccccc45)cc3F)ccnc2cc1OCCCN1CCC(C)CC1,30,65,80,100,580

Compound,IC50 (MKN-45) [nM],IC50 [1] [nM],IC50 (SMMC-7721) [nM],IC50 (HT-29) [nM],IC50 [2] [nM]
COc1cccc(-c2cc(C(=O)Nc3ccc(Oc4ccnc5cc(OCCCN6CCOCC6)c(OC)cc45)c(F)c3)c3ccccc3n2)c1,110,560,1130,3050,
COc1cc2c(Oc3ccc(NC(=O)c4cc(-c5ccc(C)cc5)nc5ccccc45)cc3F)ccnc2cc1OCCCN1CCCC1,300,240,520,850,
COc1cc2c(Oc3ccc(NC(=O)c4cc(-c5ccc(C)cc5)nc5ccc(F)cc45)cc3F)ccnc2cc1OCCCN1CCOCC1,320,440,,390,820
COc1cc2c(Oc3ccc(NC(=O)c4cc(-c5ccc(C)cc5)nc5ccccc45)cc3F)ccnc2cc1OCCCN1CCOCC1,830,1100,1520,3560,
COc1cc2c(Oc3ccc(NC(=O)c4cc(-c5ccc(C(F)(F)F)cc5)nc5ccccc45)cc3F)ccnc2cc1OCCCN1CCOCC1,12,68,100,230,1010
COc1ccc(-c2cc(C(=O)Nc3ccc(Oc4ccnc5cc(OCCCN6CCCCC6)c(OC)cc45)c(F)c3)c3ccccc3n2)cc1,210,290,210,690,1360
COc1cc2c(Oc3ccc(NC(=O)c4cc(-c5ccc(F)cc5)nc5ccc(F)cc45)cc3F)ccnc2cc1OCCCN1CCOCC1,51,27,,250,2150
COc1cccc(-c2cc(C(=O)Nc3ccc(Oc4ccnc5cc(OCCCN6CCCC6)c(OC)cc45)c(F)c3)c3ccccc3n2)c1,430,290,790,1020,
COc1cc2c(Oc3ccc(NC(=O)c4cc(-c5ccc(Cl)c(Cl)c5)nc5ccccc45)cc3F)ccnc2cc1OCCCN1CCCC1,170,400,340,1960,
COc1cc2c(Oc3ccc(NC(=O)c4cc(-c5cccc(Cl)c5)nc5ccc(F)cc45)cc3F)ccnc2cc1OCCCN1CCOCC1,60,68,,1200,1060
COc1cc2c(Oc3ccc(NC(=O)c4cc(-c5cccc(Cl)c5)nc5ccc(F)cc45)cc3F)ccnc2cc1OCCCN1CCC(C)CC1,10,60,,92,110
COc1cccc(-c2cc(C(=O)Nc3ccc(Oc4ccnc5cc(OCCCN6CCC(C)CC6)c(OC)cc45)c(F)c3)c3cc(F)ccc3n2)c1,730,840,,1210,840
COc1ccc(-c2cc(C(=O)Nc3ccc(Oc4ccnc5cc(OCCCN6CCCCC6)c(OC)cc45)c(F)c3)c3cc(F)ccc3n2)cc1,260,240,,600,1100
COc1cc2c(Oc3ccc(NC(=O)c4cc(-c5cccc(Cl)c5)nc5ccccc45)cc3F)ccnc2cc1OCCCN1CCCCC1,11,11,30,62,150
COc1ccc(-c2cc(C(=O)Nc3ccc(Oc4ccnc5cc(OCCCN6CCOCC6)c(OC)cc45)c(F)c3)c3ccccc3n2)cc1,160,750,1180,3190,
COc1ccc(-c2cc(C(=O)Nc3ccc(Oc4ccnc5cc(OCCCN6CCC(C)CC6)c(OC)cc45)c(F)c3)c3ccccc3n2)cc1,320,110,450,1110,
